Reference: article PMC10005185, “Structure-guided engineering of a receptor-agonist pair for inducible activation of the ABA adaptive response to drought” (Science Advances, 2023)
Read-outs that look alike come from different tables or passages of the source.

Key:
ABI1 with AtPYL1 = target: T1, ABI1 with AtPYL1 (Arabidopsis thaliana, UniProt Q8VZS8); test: PP2C inhibition assay, ABI1 with AtPYL1; type: biochemical; settings: 1 µM phosphatase:2 µM receptor; read-out: IC50 of ABI1 with AtPYL1
T1 construct: His; made in house
Method: His-tagged receptors and phosphatases were purified using nickel–nitrilotriacetic acid (Ni-NTA) affinity chromatography. Protein integrity was analyzed by SDS–polyacrylamide gel electrophoresis, followed by InstantBlue staining. Phosphatase activity was measured using p-Nitrophenyl Phosphate (pNPP) (25 mM) as substrate, 10 mM MnCl2,1 μM PP2C, and 2 μM of the indicated receptors. Proteins were incubated with the ligands for 10 min at room temperature. pNPP was then added to start the reactions, and the absorbance at 405 nm was monitored for 20 min in a ViktorX5 plate reader. Assays were repeated twice. For dose-response experiments, IC50 values were obtained with GraphPad Prism 9 using a nonlinear regression curve fit. Each ligand concentration was tested in triplicate. Phosphatase activity of ABI1 was measured using RRA(phosphoT)VA peptide as a substrate, as described ([27]). […]
(D) Dose response analysis of iSB09 or ABA-dependent inhibition of ABI1 (blue and black lines, respectively) in presence of either AtPYL1 or AtPYR1. Values (average of duplicates) show PP2C activity after incubation with the indicated concentration of ligand and receptor at 1:2 ratio (1 µM phosphatase:2 µM receptor). […]
whereas with AtPYR1 was 200 nM and 213 nM, for ABA and iSB09, respectively. Ligands were assayed

CsPYL1^5m:ΔNHAB1 = CsPYL1^5m:ΔNHAB1 (Citrus sinensis, UniProt A0A067E666, F137I/T135L/T153I/V112L/V168A); test: biochemical
Method: To obtain the Kd values, the data were analyzed using nonlinear least-squares regression using a model considering a single set of binding sites implemented in Origin 7.0 (OriginLab).

[1] = tested on: Arabidopsis thaliana seeds (WT Col-0, CsPYL1 and CsPYL1^5m lines); test: Seed germination assay; type: in vivo; settings: for IC50: Arabidopsis thaliana, read-out: Germination IC50
Method: For seed germination assays, seeds were stratified in the dark at 4°C for 3 days. Approximately 100 seeds of each genotype were sown on MS plates supplemented with six different ligand concentrations. The experiments were repeated three times. To score seed germination, radical emergence was analyzed at 24 hours after sowing.

[2] = tested on: Arabidopsis thaliana seedlings (WT Col-0, overexpressing lines, receptor mutants); test: Seedling establishment assay; type: in vivo
Method: Seedling establishment was scored as the percentage of seeds that developed green expanded cotyledons and the first pair of true leaves at 5 or 7 days. Seedling establishment assays in the presence of ABA receptor agonists were performed in 24-well plates, where approximately 25 to 35 seeds per well were sown. Each well contained a different treatment. The experiment was repeated at least twice.

[3] = tested on: Arabidopsis thaliana seedlings; test: Root growth assay; type: in vivo; settings: 10 μM
Method: Seedlings were grown on vertically oriented Murashige and Skoog (MS) plates for 4 to 5 days. Afterward, seedlings were transferred to MS supplemented with the indicated concentrations of the different ligands and kept on vertical orientation. Ten days later, the plates were scanned on a flatbed scanner to produce image files suitable for quantitative analysis of root growth using the NIH Image software ImageJ. The experiment was performed in triplicate (n = 13 to 16). Statistical comparisons were performed by either pairwise t tests or one-way ANOVA using GraphPad Prism 9.

tomato plants = test: IR thermography of leaf temperature, tomato; type: in vivo, Solanum lycopersicum; settings: 10 μM
Method: For experiments using N. benthamiana or S. lycopersium, 1-month-old plants grown under long-day conditions (16-hour light/8-hour dark) were sprayed with 10 mM MES (pH 5.7) + 0.02% Silwet L77 supplemented with either 50 μM ABA, or the indicated concentration of iSB07/iSB09 or 0.1% DMSO as a mock-treated control. IR images were taken using a FLIR E95 thermocamera 1 day after the treatment (for N. benthamiana) or 2 and 5 days (for S. lycopersicum). Quantification was performed using the FLIR tools software on fully expanded leaves by analyzing 10 sections per leaf. At least six plants per genotype and treatment were analyzed in each experiment. Experiments were repeated twice. The average plant temperature ± SD of all the plants for each treatment and genotype was calculated and used to report the increase in temperature produced by each treatment. Statistical comparisons among genotypes were performed by either pairwise t tests or one-way ANOVA.
Fig. S6. QB lacks bioactivity in tomato whereas iSB09 is
(A) Quantification of the leaf temperature difference at 2 and 5 days after spraying tomato plants with 0.1 % DMSO
(mock- treated control), 10 µM iSB09 or 10 µM QB.
Asterisk indicates p<0.001 (Student’s t test). Values show individual points and average ± SD (n=4 replicates for mock and chemical treatments). (B) IR-images of representative tomato plants at 2 days after being treated with 0.1 % DMSO
Photographs were taken with white light (leaf panel) or infrared thermography (right panel) using the camera FLIR
HAB1 phosphatase activity in presence of PYL4. IC50 values for iSB09 or QB-dependent inhibition of HAB1 by AtPYL4. Values (average of duplicates) show PP2C activity after incubation with the indicated concentration of ligand and AtPYL4 at 1:2 ratio (1 µM phosphatase:2 µM receptor).
(1 picture or pasted object on this page, not shown here)

[4] = tested on: MAPKKK18 promoter-LUC reporter; test: pMAPKKK18-LUC luciferase reporter assay; type: in vivo, Arabidopsis thaliana; settings: 100 μM, 6 hours
Method: […]18-LUC seedlings were grown in 24-well plates (25 to 35 seeds per well) filled with 1 ml of liquid MS medium for 7 days. MS medium was replaced with fresh medium supplemented with 100 μM D-luciferin, potassium salt (GoldBio), and the indicated treatments with iSB07, iSB09, or ABA. Seedlings were incubated for 6 hours, and luminescence was recorded with a LAS-3000 imager (Fujifilm) equipped with a charge-coupled device camera using 2-min exposures. Eight-bit images were transformed in rainbow false color and quantified using Fiji. The experiment was repeated at least twice.

Sequence of CsPYL1^5m:ΔNHAB1 (A0A067E666 1-209 V112L/T135L/F137I/T153I/V168A): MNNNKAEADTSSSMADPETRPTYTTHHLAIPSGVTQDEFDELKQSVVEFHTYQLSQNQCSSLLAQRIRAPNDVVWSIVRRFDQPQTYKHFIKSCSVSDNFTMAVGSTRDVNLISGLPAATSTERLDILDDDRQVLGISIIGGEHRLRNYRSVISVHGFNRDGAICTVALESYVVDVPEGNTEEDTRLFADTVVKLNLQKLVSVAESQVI
Sequence of CsPYL1^5m:ΔNHAB1 (Q9CAJ0 179-511 partner): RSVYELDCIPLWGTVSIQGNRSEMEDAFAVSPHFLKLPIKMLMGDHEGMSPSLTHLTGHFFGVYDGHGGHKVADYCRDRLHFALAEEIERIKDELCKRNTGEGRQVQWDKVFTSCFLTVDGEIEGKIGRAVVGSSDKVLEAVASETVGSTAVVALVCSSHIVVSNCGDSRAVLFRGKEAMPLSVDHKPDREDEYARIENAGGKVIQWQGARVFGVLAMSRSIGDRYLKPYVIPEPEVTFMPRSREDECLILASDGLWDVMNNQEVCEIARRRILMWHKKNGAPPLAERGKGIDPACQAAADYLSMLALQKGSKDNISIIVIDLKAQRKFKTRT
T1 sequence (Q8VZS8 whole entry): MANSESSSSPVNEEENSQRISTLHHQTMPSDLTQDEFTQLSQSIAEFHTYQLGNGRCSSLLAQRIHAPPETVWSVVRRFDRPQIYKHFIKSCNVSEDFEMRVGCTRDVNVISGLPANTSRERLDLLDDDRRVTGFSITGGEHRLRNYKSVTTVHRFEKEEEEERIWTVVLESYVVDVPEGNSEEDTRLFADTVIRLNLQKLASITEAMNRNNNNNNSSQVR
T1 sequence (P49597 whole entry partner): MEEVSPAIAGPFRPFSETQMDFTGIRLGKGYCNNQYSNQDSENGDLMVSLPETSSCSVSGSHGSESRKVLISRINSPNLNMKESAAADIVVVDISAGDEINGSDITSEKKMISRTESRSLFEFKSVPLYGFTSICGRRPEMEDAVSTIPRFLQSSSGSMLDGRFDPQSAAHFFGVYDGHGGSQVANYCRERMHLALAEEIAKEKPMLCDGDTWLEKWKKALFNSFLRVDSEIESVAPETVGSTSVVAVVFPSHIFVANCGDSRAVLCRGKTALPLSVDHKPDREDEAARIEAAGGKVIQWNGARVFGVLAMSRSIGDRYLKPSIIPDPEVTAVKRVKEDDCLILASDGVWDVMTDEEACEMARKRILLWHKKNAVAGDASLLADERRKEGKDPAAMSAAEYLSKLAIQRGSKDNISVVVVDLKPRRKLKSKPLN

## CCn1c(=O)cc(C)c2cc(CNS(=O)(=O)c3ccccc3)ccc21 [iSB09]
ABI1 with AtPYL1
  IC50: 0.226 µM
CsPYL1^5m:ΔNHAB1
  Kd: 0.56 µM
[1]; WT Col-0
  IC50: 4.39 µM
[1]; line expressing CsPYL1
  IC50: 1.35 µM
[1]; line expressing CsPYL1^5m
  IC50: 0.29 µM
[1]; plants expressing CsPYL1^5m
  inhibition of seed germination, iSB09 relative to iSB07: threefold more effective
[2]; WT Col-0
  dosage able to inhibit seedling establishment: 5 µM
[2]; mutants lacking functional PYR1 and PYL1, 10 μM iSB09
  agonist-induced inhibition of seedling establishment: insensitive
[2]; plants that express CsPYL1^5m
  dosage able to inhibit seedling establishment: 0.5 µM
[3]; CsPYL1^5m lines
  inhibition of root growth: marked inhibition
[3]; WT plants
  inhibition of root growth: did not significantly inhibit
Tomato plants; 2 and 5 days after spraying
  bioactivity in tomato (leaf temperature): active
Tomato plants; tomato
  persistence of the effect on leaf temperature after spraying: up to 5 days
[4]
  induction of LUC relative to 25 μM ABA: approximately twofold higher
